According to patent US5407940A, “New ellipticine compounds” (priority 1992, dated 1995):
Read-outs that look alike come from different tables or passages of the source.

Tests used:
[1] = test system: M5076 sarcoma; experiment: Anti-tumour activity against M5076 sarcoma; assay type: in vivo, female B6D2F1 mice; conditions: for Survivors on d90 / median T/C (survival): i.p., d1, d5, d9, d13
Description: M5076 sarcoma is supplied by NCI (Frederick, USA). The tumour cells (10^7 cells/animal) were inoculated on d0 into the peritoneal cavity of female B6D2F1 mice. The compounds were administered by the i.p. route on d1, d5, d9 and d13 at the doses indicated. The surviving animals on d90 were recorded and the T/C survival (%) was calculated.

[2] = test system: KB-3-1; experiment: Cytotoxicity, sensitive line KB-3-1; assay type: cell-based; conditions: Homo sapiens, KB 3-1, 96 h, read-out: Cytotoxicity IC50, sensitive KB-3-1
Description: (§1) The cells are distributed on microplates and exposed to the cytotoxic compounds.

[3] = test system: KB-A1; experiment: cells; conditions: Homo sapiens, KB-A1, 96 h, read-out: Cytotoxicity IC50, resistant KB-A1
[4] = test system: S1; experiment: Cytotoxicity, sensitive line S1; assay type: cell-based; conditions: Homo sapiens, 96 h, read-out: Cytotoxicity IC50, sensitive S1
Description: as §1

[5] = test system: leukaemia P388; conditions: mouse, in vivo
[6] = test system: Lewis pulmonary carcinoma; experiment: Anti-tumour activity against Lewis pulmonary carcinoma; assay type: in vivo, female B6D2F1 mice; conditions: for Survivors on d90 / median T/C (survival) / median T/C (volume) d20: i.v., d3, d6, d9; for activity against this very resistant model (in words): adriamycin at the maximum tolerated dose
[7] = test system: L1210; experiment: Cytotoxicity, line L1210 (Microculture Tetrazolium Assay); assay type: cell-based, murine; conditions: for IC50: Mus musculus, L1210, 48 h, read-out: Cytotoxicity IC50, line L1210
Description: as §1

[8] = test system: colon 38; experiment: Anti-tumour activity against colon 38; assay type: in vivo, female B6D2F1 mice; conditions: i.v., d2 and d9, d25
Description: Colon 38 (supplied by NCI, Frederick, USA) was inserted in the form of fragments by the subcutaneous route into female B6D2F1 mice. The compounds were administered by the i.v. route on d2 and d9 and the anti-tumour activity was determined on […] by measuring the tumour volume (T/C volume, %).

[9] = test system: P388/VCR-20; experiment: cells; conditions: Mus musculus, P388, 48 h, read-out: Cytotoxicity IC50, resistant P388/VCR-20
[10] = test system: leukaemia P388; experiment: Anti-tumour activity against leukaemia P388 in vivo; conditions: for Survivors on d60/total no. of mice / T/C: intraperitoneal, day 1
[11] = test system: P388; experiment: Cytotoxicity, sensitive line P388 (Microculture Tetrazolium Assay); assay type: cell-based, murine; conditions: Mus musculus, P388, 48 h, read-out: Cytotoxicity IC50, sensitive P388
Description: as §1

[12] = test system: S1/tMDR; experiment: cells; conditions: Homo sapiens, 96 h, read-out: Cytotoxicity IC50, resistant S1/tMDR
[13] = test system: P388/VCR-20
[14] = test system: S1/tMDR
[15] = test system: KB-A1; conditions: KB-A1 vs KB-3-1

COc1cccc2c1C(=O)c1c(O)c3c(c(O)c1C2=O)C[C@@](O)(C(=O)CO)C[C@@H]3O[C@H]1C[C@H](N)[C@H](O)[C@H](C)O1 [ADR, adriamycin, reference compound]
Survivors on d90 ([1]; 5 mg/kg): 4/10
median T/C (survival) ([1]; 5 mg/kg): 320%
IC50 [2]: 5 nM
IC50 [3]: 6.87 µM
IC50 [4]: 36 nM
gravimetric variation [5]: -0.7 g
Survivors on d90 ([6]; 5 mg/kg): 2/10
median T/C (survival) ([6]; 5 mg/kg): 125%
median T/C (volume) d20 ([6]; 5 mg/kg): 44%
Survivors on d90 ([6]; 10 mg/kg): 3/10
median T/C (survival) ([6]; 10 mg/kg): 128%
median T/C (volume) d20 ([6]; 10 mg/kg): 1%
Survivors on d90 ([6]; 2,5 mg/kg): 0/10
median T/C (survival) ([6]; 2,5 mg/kg): 108%
median T/C (volume) d20 ([6]; 2,5 mg/kg): 63%
activity against this very resistant model (in words) [6]: far less active
IC50 [7]: 26.4 nM
median T/C (tumour volume) ([8]; 15 mg/kg): 0%
IC50 [9]: 340 nM
Survivors on d60/total no. of mice ([10]; 10 mg/kg): 2/10
T/C ([10]; 10 mg/kg): 290%
cures, treated mice (comparators) ([10]; reference compounds, dose not given): 2
IC50 [11]: 20 nM

Cc1c2ccnc(C(=O)NCCN(C)C)c2cc2c3cc(O)ccc3n(C)c12 [Example 1, 1-(N,N-Dimethylaminoethylaminocarbonyl)-5,6-dimethyl-9-hydroxy-6H-pyrido[4,3-b]carbazole]
Survivors on d90 ([1]; 5 mg/kg): 0/10
median T/C (survival) ([1]; 5 mg/kg): 168%
Survivors on d90 ([1]; 10 mg/kg): 4/10
median T/C (survival) ([1]; 10 mg/kg): 301%
activity against that tumour (in words) ([1]; 20 mg/kg): very active
Survivors on d90 ([1]; 20 mg/kg): 6/10
median T/C (survival) ([1]; 20 mg/kg): > 352%
IC50 ([2]; 4 days incubation): 12 nM
IC50 [3]: 0.12 µM
IC50 ([4]; 4 days incubation): 49 nM
IC50 [12]: 25 nM
resistance factor ([13]; P388/VCR-20 vs P388): 0,8
sensitivity of resistant line P388/VCR-20 relative to corresponding sensitive line ([13]; vs P388): more sensitive
Survivors on d90 ([6]; 20 mg/kg): 6/10
median T/C (survival) ([6]; 20 mg/kg): > 300%
median T/C (volume) d20 ([6]; 20 mg/kg): 1%
curative for % of the animals ([6]; 40 mg/kg): 100%
Survivors on d90 ([6]; 40 mg/kg): 10/10
median T/C (survival) ([6]; 40 mg/kg): > 300%
median T/C (volume) d20 ([6]; 40 mg/kg): 0%
Survivors on d90 ([6]; 60 mg/kg): 6/10
median T/C (survival) ([6]; 60 mg/kg): > 300%
median T/C (volume) d20 ([6]; 60 mg/kg): 0%
activity against this very resistant model (in words) [6]: very active
resistance factor ([14]; S1/tMDR vs S1): 0,5
sensitivity of resistant line S1/tMDR relative to corresponding sensitive line ([14]; vs S1): more sensitive
times more cytotoxic than adriamycin ([7]; L1210): approximately 9 times
times more cytotoxic than elliptinium acetate ([7]; L1210): ~46 times
IC50 ([7]; 2 days incubation): 2.6 nM
median T/C (tumour volume) ([8]; 20 mg/kg): 41%
median T/C (tumour volume) ([8]; 40 mg/kg): 16%
median T/C (tumour volume) ([8]; 60 mg/kg): 0%
IC50 [9]: 4 nM
Survivors on d60/total no. of mice ([10]; 5 mg/kg): 1/10
T/C ([10]; 5 mg/kg): 163%
Survivors on d60/total no. of mice ([10]; 10 mg/kg): 1/10
T/C ([10]; 10 mg/kg): 183%
Survivors on d60/total no. of mice ([10]; 20 mg/kg): 2/10
T/C ([10]; 20 mg/kg): 220%
Survivors on d60/total no. of mice ([10]; 30 mg/kg): 3/10
T/C ([10]; 30 mg/kg): 200%
Survivors on d60/total no. of mice ([10]; 60 mg/kg): 3/10
T/C ([10]; 60 mg/kg): 257%
long-term survivors over all doses employed ([10]; all doses employed): all the doses employed giving long-term survivors
cures, treated mice ([10]; single administration of 30 mg/kg): 7 out of 10
IC50 ([11]; 2 days incubation): 5 nM
resistance factor [15]: 10
